Laboratory results reported in patent US20090221538A1, “METHODS OF TREATING MULTIPLE SCLEROSIS BY ADMINISTERING PULSE DOSE CALCITRIOL” (priority 2008, published 2009).

Experiment: Spinal cord 1,25-(OH)2D3 extraction and radioimmunoassay
Format: in vivo, mouse
Conditions: 200 ng 1,25-(OH)2D3 pulse dose plus vitamin D3 supplementation; end of the study
Method: The vitamin D3 and 1,25-(OH)2D3 were obtained from Sigma Chemical Co. The vitamin D3 was dissolved in safflower oil and stored in the dark at 5° C. The 1,25-(OH)2D3 was dissolved in 100% ethanol (1 mg/mL) and stored in the dark under nitrogen gas at −20° C. The concentration of 1,25-(OH)2D3 was determined by spectral analysis. Animals with stage 2.3±0.3 were randomized into treatment groups. The details of the treatments are given in the figure legends and table footnotes. The synthetic diet used in some experiments was formulated to contain all essential nutrients except vitamin D3 and was prepared exactly as we described (Spach and Hayes, 2005, J. Immunol. 175:4119-4126). For experiments using supplementary vitamin D3, the placebo group was fed the synthetic diet ad libidum without added vitamin D3, whereas the vitamin D3-supplemented group was fed the synthetic diet ad libidum with vitamin D3 added in an amount to provide 1 μg/d, calculated based on a daily measured consumption of 4.0 g dry weight of diet per mouse. Fresh synthetic diet was provided three times per week. At several times during the study, mice were weighed and blood samples were obtained from the tail vein. At the conclusion of the study, the mice were euthanized, a blood sample was obtained, perfusion was done, and the spinal cords and optic nerves were removed. […]

Question: With `C=C1/C(=C\C=C2/CCC[C@]3(C)[C@@H]([C@H](C)CCCC(C)(C)O)CC[C@@H]23)C[C@@H](O)C[C@@H]1O` [1,25-(OH)2D3, 1,25-dihydroxy vitamin D3] as the molecule, how does the “1,25-(OH)3D3 in the spinal cord” value read?
Answer: The value was 18.8 ± 6.6 pmol/mL.
